{"source": "ChEMBL document CHEMBL5120880", "about": "“Peptidomimetics: An Overview of Recent Medicinal Chemistry Efforts toward the Discovery of Novel Small Molecule Inhibitors” (J Med Chem, 2022)", "key": {"[1]": {"tested_on": "Hepatitis C virus", "test": "Antiviral activity against HCV genotype 1b/3a NS5A infected in human Huh-7 cells by phenotypic assay", "format": "functional, organism-based, Hepacivirus hominis"}, "[2]": {"tested_on": "Hepatitis C virus", "test": "Antiviral activity against HCV genotype 1b/6a NS5A infected in human Huh-7 cells by phenotypic assay", "format": "functional, organism-based, Hepacivirus hominis"}, "[3]": {"tested_on": "MDA-MB-231", "test": "Cytotoxicity against human MDA-MB-231 cells assessed as cell growth inhibition", "format": "functional, cell-based"}, "[4]": {"tested_on": "BT-20", "test": "Cytotoxicity against human BT-20 cells assessed as cell growth inhibition", "format": "functional, cell-based"}, "[5]": {"tested_on": "MDA-MB-468", "test": "Cytotoxicity against human MDA-MB-468 cells assessed as cell growth inhibition", "format": "functional, cell-based"}, "[6]": {"tested_on": "HCT-116", "test": "Cytotoxicity against human HCT-116 cells assessed as cell growth inhibition", "format": "functional, cell-based"}, "[7]": {"tested_on": "A549", "test": "Cytotoxicity against human A549 cells assessed as cell growth inhibition", "format": "functional, cell-based"}, "[8]": {"tested_on": "SW480", "test": "Cytotoxicity against human SW480 cells assessed as cell growth inhibition", "format": "functional, cell-based"}, "[9]": {"tested_on": "Hepatitis C virus", "test": "Antiviral activity against HCV", "format": "functional, organism-based, Hepacivirus hominis"}, "[10]": {"tested_on": "Hep 3B2", "test": "Antitumor activity against human Hep3B cells assessed as cell growth inhibition", "format": "functional, cell-based"}, "[11]": {"tested_on": "HCC1954", "test": "Antitumor activity against human HCC1954 cells assessed as cell growth inhibition", "format": "functional, cell-based"}, "[12]": {"tested_on": "NALM-6", "test": "Antitumor activity against human NALM-6 cells assessed as cell growth inhibition", "format": "functional, cell-based"}, "[13]": {"tested_on": "FaDu", "test": "Antitumor activity against human FaDu cells assessed as cell growth inhibition", "format": "functional, cell-based"}, "[14]": {"tested_on": "BT-474", "test": "Antitumor activity against human BT-474 cells assessed as cell growth inhibition", "format": "functional, cell-based"}, "[15]": {"tested_on": "SARS-CoV-2", "test": "Antiviral activity against SARS-CoV-2 by cell based assay", "format": "functional, organism-based", "settings": "Severe acute respiratory syndrome coronavirus 2"}, "[16]": {"tested_on": "SARS-CoV-2", "test": "microbe, parasite or virus in culture", "settings": "Severe acute respiratory syndrome coronavirus 2"}, "[17]": {"tested_on": "Murine hepatitis virus", "test": "microbe, parasite or virus in culture", "settings": "Murine coronavirus"}, "[18]": {"tested_on": "Feline infectious peritonitis virus", "test": "microbe, parasite or virus in culture", "settings": "Alphacoronavirus 1"}, "[19]": {"tested_on": "Middle East respiratory syndrome-related coronavirus", "test": "microbe, parasite or virus in culture"}, "[20]": {"tested_on": "SARS-CoV", "test": "microbe, parasite or virus in culture", "settings": "Severe acute respiratory syndrome-related coronavirus"}, "[21]": {"tested_on": "N2a", "test": "Antiproliferative activity against mouse N2a cells by MTT assay", "format": "functional, cell-based"}, "[22]": {"tested_on": "HeLa", "test": "Antiproliferative activity against human HeLA cells by MTT assay", "format": "functional, cell-based"}, "[23]": {"test": "Binding affinity to beta-catenin/APC (unknown origin) assessed as inhibition constant", "set-up": "species or system Homo sapiens"}, "[24]": {"molecular_target": "Catenin beta-1/Cadherin-1 (Homo sapiens, UniProt P12830+P35222)", "sequence (P35222 whole entry)": "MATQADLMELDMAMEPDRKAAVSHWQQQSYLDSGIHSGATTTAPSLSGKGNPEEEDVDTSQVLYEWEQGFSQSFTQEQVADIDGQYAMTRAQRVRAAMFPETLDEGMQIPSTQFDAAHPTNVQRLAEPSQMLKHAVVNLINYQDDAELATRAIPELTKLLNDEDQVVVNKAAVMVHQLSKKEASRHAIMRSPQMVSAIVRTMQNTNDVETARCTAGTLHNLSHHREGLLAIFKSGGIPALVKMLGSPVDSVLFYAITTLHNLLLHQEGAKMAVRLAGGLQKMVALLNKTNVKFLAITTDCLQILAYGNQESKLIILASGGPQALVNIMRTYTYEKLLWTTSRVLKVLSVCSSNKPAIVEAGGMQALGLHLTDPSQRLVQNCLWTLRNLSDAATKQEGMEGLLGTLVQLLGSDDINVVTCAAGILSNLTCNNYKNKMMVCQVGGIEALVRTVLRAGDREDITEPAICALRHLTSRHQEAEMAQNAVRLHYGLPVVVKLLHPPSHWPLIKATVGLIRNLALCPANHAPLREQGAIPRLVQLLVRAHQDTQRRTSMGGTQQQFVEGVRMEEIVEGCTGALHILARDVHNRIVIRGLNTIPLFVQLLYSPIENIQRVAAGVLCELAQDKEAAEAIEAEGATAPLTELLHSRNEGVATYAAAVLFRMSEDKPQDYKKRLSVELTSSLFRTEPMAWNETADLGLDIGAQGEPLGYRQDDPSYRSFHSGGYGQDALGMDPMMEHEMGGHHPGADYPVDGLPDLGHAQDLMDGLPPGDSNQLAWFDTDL", "sequence (P12830 whole entry)": "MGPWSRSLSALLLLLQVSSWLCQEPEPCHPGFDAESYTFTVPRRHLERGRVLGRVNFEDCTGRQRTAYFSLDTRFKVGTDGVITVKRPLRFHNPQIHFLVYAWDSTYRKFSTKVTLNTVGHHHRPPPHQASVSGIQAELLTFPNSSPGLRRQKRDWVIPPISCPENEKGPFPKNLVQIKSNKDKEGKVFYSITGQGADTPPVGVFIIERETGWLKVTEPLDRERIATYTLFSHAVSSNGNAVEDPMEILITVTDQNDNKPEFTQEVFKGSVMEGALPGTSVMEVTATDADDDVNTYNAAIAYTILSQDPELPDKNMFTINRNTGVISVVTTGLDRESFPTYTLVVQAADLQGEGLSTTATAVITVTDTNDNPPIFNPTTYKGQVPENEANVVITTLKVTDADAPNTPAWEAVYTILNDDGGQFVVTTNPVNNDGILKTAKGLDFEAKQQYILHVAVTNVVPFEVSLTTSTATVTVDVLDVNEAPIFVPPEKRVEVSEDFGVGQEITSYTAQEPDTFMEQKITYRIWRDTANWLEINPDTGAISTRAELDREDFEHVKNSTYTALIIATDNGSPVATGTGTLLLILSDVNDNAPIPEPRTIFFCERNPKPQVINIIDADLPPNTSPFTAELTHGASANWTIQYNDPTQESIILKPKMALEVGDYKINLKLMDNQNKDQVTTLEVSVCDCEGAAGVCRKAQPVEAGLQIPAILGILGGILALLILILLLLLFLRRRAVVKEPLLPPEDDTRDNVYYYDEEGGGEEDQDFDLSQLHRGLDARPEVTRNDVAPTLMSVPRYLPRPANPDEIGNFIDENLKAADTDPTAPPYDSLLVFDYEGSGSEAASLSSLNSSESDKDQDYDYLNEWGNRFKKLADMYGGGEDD", "test": "Binding affinity to beta-catenin/E-cadherin (unknown origin) assessed as inhibition constant", "format": "protein assay"}}, "data": [{"smiles": "COC(=O)N[C@H](C(=O)N1CCC[C@H]1c1ncc(-c2ccc(-c3ccc(-c4cnc([C@@H]5CCCN5C(=O)[C@@H](NC(=O)OC)C(C)C)[nH]4)cc3)cc2)[nH]1)C(C)C", "values": [{"measurement": "EC50", "setting": "[1]", "value": 0.105, "unit": "nM"}, {"measurement": "EC50", "setting": "[2]", "value": 0.047, "unit": "nM"}]}, {"smiles": "CCOC(=O)CC[C@H](NC(=O)[C@H](Cc1nn[nH]n1)NC(=O)[C@H](Cc1ccc2ccccc2c1)NC(=O)c1cc2cc(Cl)ccc2[nH]1)C(=O)Nc1ccc(OC(F)(F)F)cc1", "values": [{"measurement": "IC50", "setting": "[3]", "value": 12.3, "unit": "µM"}, {"measurement": "IC50", "setting": "[4]", "value": 16.5, "unit": "µM"}, {"measurement": "IC50", "setting": "[5]", "value": 7.25, "unit": "µM"}, {"measurement": "IC50", "setting": "[6]", "value": 69.4, "unit": "µM"}, {"measurement": "IC50", "setting": "[7]", "value": 86.4, "unit": "µM"}, {"measurement": "IC50", "setting": "[8]", "value": 14.1, "unit": "µM"}]}, {"smiles": "CC[C@@H]1[C@@H]2CN(C(=O)[C@H](C(C)(C)C)NC(=O)O[C@@H]3C[C@H]3CCCCC(F)(F)c3nc4ccc(OC)cc4nc3O2)[C@@H]1C(=O)N[C@]1(C(=O)NS(=O)(=O)C2(C)CC2)C[C@H]1C(F)F", "values": [{"measurement": "EC50", "setting": "[9]", "value": 70, "unit": "nM"}]}, {"smiles": "NC(=O)CC[C@H](NC(=O)[C@H](Cc1nn[nH]n1)NC(=O)[C@H](Cc1ccc2ccccc2c1)NC(=O)c1cc2cc(Cl)ccc2[nH]1)C(=O)Nc1ccc(OC(F)(F)F)cc1", "values": [{"measurement": "IC50", "setting": "[3]", "value": 34.3, "unit": "µM"}, {"measurement": "IC50", "setting": "[4]", "value": 38.4, "unit": "µM"}, {"measurement": "IC50", "setting": "[5]", "value": 29.2, "unit": "µM"}, {"measurement": "IC50", "setting": "[6]", "value": 63.9, "unit": "µM"}, {"measurement": "IC50", "setting": "[7]", "value": 60.3, "unit": "µM"}, {"measurement": "IC50", "setting": "[8]", "value": 28.2, "unit": "µM"}]}, {"smiles": "CCCCCCCCCCCCCCc1cccc(O[C@H]2C[C@@H](C(=O)NCC(c3ccccc3)c3ccccc3)N(C(=O)[C@@H](NC(=O)[C@H](C)NC)C(C)(C)C)C2)c1", "values": [{"measurement": "EC50", "setting": "[10]", "value": 2.2, "unit": "µM"}, {"measurement": "EC50", "setting": "[11]", "value": 19.8, "unit": "µM"}, {"measurement": "EC50", "setting": "[12]", "value": 11.1, "unit": "µM"}, {"measurement": "EC50", "setting": "[13]", "value": 1.5, "unit": "µM"}, {"measurement": "EC50", "setting": "[14]", "value": 7, "unit": "µM"}]}, {"smiles": "CC(C)C[C@H](NC(=O)OC1CCC(F)(F)CC1)C(=O)N[C@H](C=O)C[C@H]1CCNC1=O", "values": [{"measurement": "EC50", "setting": "[15]", "value": 110, "unit": "nM"}, {"measurement": "IC50", "setting": "[16]", "value": 1500, "unit": "nM"}, {"measurement": "EC50", "setting": "[17]", "value": 80, "unit": "nM"}, {"measurement": "EC50", "setting": "[18]", "value": 120, "unit": "nM"}, {"measurement": "IC50", "setting": "[19]", "value": 70, "unit": "nM"}, {"measurement": "IC50", "setting": "[20]", "value": 2300, "unit": "nM"}]}, {"smiles": "CCCCC1CCC(OC(=O)N[C@@H](CC(C)C)C(=O)N[C@H](C=O)C[C@H]2CCNC2=O)CC1", "note": "(some centres not stated)", "values": [{"measurement": "EC50", "setting": "[15]", "value": 100, "unit": "nM"}, {"measurement": "IC50", "setting": "[16]", "value": 800, "unit": "nM"}, {"measurement": "EC50", "setting": "[17]", "value": 120, "unit": "nM"}, {"measurement": "EC50", "setting": "[18]", "value": 220, "unit": "nM"}, {"measurement": "IC50", "setting": "[19]", "value": 150, "unit": "nM"}, {"measurement": "IC50", "setting": "[20]", "value": 900, "unit": "nM"}]}, {"smiles": "COC(=O)N[C@H](C(=O)N1CCC[C@H]1C(=O)Nc1cccc(-c2ccc3c(c2)C(F)(F)c2cc(-c4cnc([C@@H]5CCCN5C(=O)[C@@H](NC(=O)OC)C(C)C)[nH]4)ccc2-3)c1)C(C)C", "values": [{"measurement": "EC50", "setting": "[9]", "value": "< 0.05", "unit": "nM"}, {"measurement": "EC50", "setting": "[1]", "value": "> 0.5", "unit": "nM"}, {"measurement": "EC50", "setting": "[2]", "value": 0.275, "unit": "nM"}]}, {"smiles": "COC(=O)N[C@H](C(=O)N1CCC[C@H]1C(=O)Nc1cc2ccc1CCc1ccc(cc1NC(=O)[C@@H]1CCCN1C(=O)[C@@H](NC(=O)OC)C(C)C)CC2)C(C)C", "values": [{"measurement": "EC50", "setting": "[9]", "value": 0.08, "unit": "nM"}, {"measurement": "EC50", "setting": "[1]", "value": "> 0.5", "unit": "nM"}, {"measurement": "EC50", "setting": "[2]", "value": "> 0.5", "unit": "nM"}]}, {"smiles": "O=C(Cc1ccccc1)NC1CC2CN(Cc3ccccc3)CC3C2CC=C(COC(=O)Cc2ccccc2)C13", "note": "(configuration not stated)", "values": [{"measurement": "EC50", "setting": "[21]", "value": 2100, "unit": "nM"}, {"measurement": "EC50", "setting": "[22]", "value": 10.3, "unit": "µM"}]}, {"smiles": "CCCCCCCCCCCCCCCCCCS[C@H]1C[C@@H](C(=O)NCC(c2ccccc2)c2ccccc2)N(C(=O)[C@@H](NC(=O)[C@H](C)NC)C(C)(C)C)C1", "values": [{"measurement": "EC50", "setting": "[10]", "value": 12.4, "unit": "µM"}, {"measurement": "EC50", "setting": "[11]", "value": 17.5, "unit": "µM"}, {"measurement": "EC50", "setting": "[12]", "value": 26.9, "unit": "µM"}, {"measurement": "EC50", "setting": "[13]", "value": 5.4, "unit": "µM"}, {"measurement": "EC50", "setting": "[14]", "value": 10.8, "unit": "µM"}]}, {"smiles": "O=C(O)CC[C@H](NC(=O)[C@H](Cc1nnn[nH]1)NC(=O)[C@H](Cc1ccc2ccccc2c1)NC(=O)c1cc2c(Cl)cccc2[nH]1)C(=O)Nc1ccc(OC(F)(F)F)cc1", "values": [{"measurement": "Ki", "setting": "[23]", "value": 173, "unit": "µM"}, {"measurement": "Ki", "setting": "[24]", "value": 13, "unit": "µM"}]}]}
